Reference: patent US20160058829A1, “ANTI-FIBROTIC PEPTIDES AND THEIR USE IN METHODS FOR TREATING DISEASES AND DISORDERS CHARACTERIZED BY FIBROSIS” (Thrasos Innovation, Inc., priority 2011, published 2016)
Positions of bridges follow the written chain, without caps; N, C: chain ends. Non-standard residues stand in square brackets, D forms with d. *: point of attachment. Dap = NC[C@H](N)C(=O)O; For = O=C*

Tested on: human proximal tubule epithelial cells (HK2)
Assay: D-glucose-induced EMT assay, E-cadherin immunofluorescence with colorimetric image analysis
Format: cell-based
Conditions: 0% = D-glucose untreated, 100% = media without D-glucose
Procedure: Chronic hyperglycemia is a known cause of renal fibrosis in type 2 diabetes. The assay in this example induces the transdifferentiation from the epithelial to the mesenchymal phenotype (EMT) in human proximal tubule epithelial cells (HK2) by exposing them to high levels of D-glucose (100 mM and 200 mM). […] Exposure to 100 mM D-glucose results in the loss of E-cadherine expression as evidenced by the loss of the fluorescene signal. Using this assay test compounds are evaluated based on their ability to inhibit the EMT processes in the presence of high levels of D-glucose. FIGS. 4-16 are fluorescence micrographs of HK2 cells exposed to 100 mM D-glucose and 100 uM of SEQ IS NOs 1 through 11, respectively. Note that all but SEQ ID NOs 10 and 11 were able to preserve the epithelial phenotype (i.e., inhibit the EMT).
Results are provided in the context of FIG. 1 and Table 3, below. In Table 3 below, compound response is scored using image analysis as described herein in the method of Methods and Materials, part C. A 0% response corresponds to the signal for 100 mM (or 200 mM) D-glucose (untreated) while the 100% response corresponds to the signal for media in the absence of D-glucose.
It has been shown that transdifferentiation of proximal tubular epithelial cells is a critical step in the development of renal fibrosis, and that this is associated with a loss of the epithelial phenotypic marker, E-cadherin expression. This provides the basis for the development of a cell-based screening assay in which high concentrations of D-Glucose (50-100 mM) are used to induce a loss of E-cadherin expression in human renal proximal tubular epithelial (HK-2) cells, and compounds are tested for their ability to reverse the loss E-cadherin expression.
Materials: • Human proximal tubular epithelial cells, HK-2 (ATCC #CRL-2190) • Serum-free keratinocyte medium (GIBCO #17005-042, K-SFM) • Epidermal growth factor (EGF: 5 ng/mL) • Bovine pituitary extract (BPE: 40 ug/mL) • Primary antibody, Mouse IgG anti-E-cadherin (R&D Systems # MAB1838) • BSA [Sigma #A7030] • secondary antibody, FITC-conjugated Goat anti-mouse IgG (Fab2) fragment (Sigma-Aldrich # F-2653) • Paraformaldehyde (10%)) • Triton X-100 (Sigma # T-9284) • PBS (Fisher Scientific #BP399-1) • D-PBS (Invitrogen #14190-144) • Polypropylene tips (Axygen, Inc. 0.5-10 uL, cat # T-300-L-R; 1-200 uL, Cat # T-200-L-R; 1-1000 uL, Cat # T-1000-C-L-R) • 50 mL polypropylene culture tubes (Fisher Scientific, cat #06-443-18) • 24-well Coster cell culture plates (Fisher Scientific #07-200-84)
Reagents & Test Samples: • Positive control: BMP-7, assayed at concentrations 0.1 and 1 ug/mL • Test compounds (peptides): each tested at final concentrations 100 uM and 200 uM.
Assay Procedure for Cell Culture Assay: • Run assay in 24-well culture plates. • Seed HK-2 cells at a density between 25,000 and 30,000 cells per well in lmL K-SFM medium with supplements added (growth medium) • Incubate HK-2 cells for 24 hours at 37° C., and let cells attach the plate • Next Day afternoon, change the medium with K-SFM medium with no added supplements (serum free medium) in all wells except the first two control wells. • Continue incubating HK-2 cells overnight at 37° C. • Next Day, aspirate the medium from all wells. Incubate the cells in growth medium (first two control wells) or expose them to test compounds for 2 hours at 37° C. Final concentrations of each Test compound are 100 and 200 uM. BMP-7 serves as a positive control in the assay. • After incubation, add D-glucose to all wells except first two control wells. Final concentrations of D-Glucose are 50 and 100 mM. • Incubate HK-2 cells for 60 hours at 37° C. • Aspirate the medium from all wells. To the wells, add pre-warmed growth medium or serum free medium containing D-glucose alone or D-glucose and test compound or D-glucose and BMP-7. Final concentrations of D-Glucose and Test compound are the same as above. • Continue incubating HK-2 cells for 24 hours at 37° C. […]

Row | Substance | Percent inhibition of D-glucose-induced EMT (100 uM peptide) | Percent inhibition of D-glucose-induced EMT (200 uM peptide)
1 | 2 (H-DYFDDSSNVL[Dap]KKYRS-OH; SMILES CC(C)C[C@H](NC(=O)[C@@H](NC(=O)[C@H](CC(N)=O)NC(=O)[C@H](CO)NC(=O)[C@H](CO)NC(=O)[C@H](CC(=O)O)NC(=O)[C@H](CC(=O)O)NC(=O)[C@H](Cc1ccccc1)NC(=O)[C@H](Cc1ccc(O)cc1)NC(=O)[C@@H](N)CC(=O)O)C(C)C)C(=O)N[C@@H](CN)C(=O)N[C@@H](CCCCN)C(=O)N[C@@H](CCCCN)C(=O)N[C@@H](Cc1ccc(O)cc1)C(=O)N[C@@H](CCCNC(=N)N)C(=O)N[C@@H](CO)C(=O)O) [compound 2] | 167% | 96%
2 | 10 (H-CYFNDSSQVLCKRYRS-OH; disulfide 1-11; SMILES CC(C)C[C@@H]1NC(=O)[C@H](C(C)C)NC(=O)[C@H](CCC(N)=O)NC(=O)[C@H](CO)NC(=O)[C@H](CO)NC(=O)[C@H](CC(=O)O)NC(=O)[C@H](CC(N)=O)NC(=O)[C@H](Cc2ccccc2)NC(=O)[C@H](Cc2ccc(O)cc2)NC(=O)[C@@H](N)CSSC[C@@H](C(=O)N[C@@H](CCCCN)C(=O)N[C@@H](CCCNC(=N)N)C(=O)N[C@@H](Cc2ccc(O)cc2)C(=O)N[C@@H](CCCNC(=N)N)C(=O)N[C@@H](CO)C(=O)O)NC1=O) [compound 10] | 20% | 17%
3 | 6 (For-CYYDNSSSVLCKRYRS-OH; disulfide 1-11; SMILES CC(C)C[C@@H]1NC(=O)[C@H](C(C)C)NC(=O)[C@H](CO)NC(=O)[C@H](CO)NC(=O)[C@H](CO)NC(=O)[C@H](CC(N)=O)NC(=O)[C@H](CC(=O)O)NC(=O)[C@H](Cc2ccc(O)cc2)NC(=O)[C@H](Cc2ccc(O)cc2)NC(=O)[C@@H](NC=O)CSSC[C@@H](C(=O)N[C@@H](CCCCN)C(=O)N[C@@H](CCCNC(=N)N)C(=O)N[C@@H](Cc2ccc(O)cc2)C(=O)N[C@@H](CCCNC(=N)N)C(=O)N[C@@H](CO)C(=O)O)NC1=O) [compound 6] | 88% | 109%
4 | 9 (H-[Dap]YYDNSSSVLDKRYRS-OH; SMILES CC(C)C[C@H](NC(=O)[C@@H](NC(=O)[C@H](CO)NC(=O)[C@H](CO)NC(=O)[C@H](CO)NC(=O)[C@H](CC(N)=O)NC(=O)[C@H](CC(=O)O)NC(=O)[C@H](Cc1ccc(O)cc1)NC(=O)[C@H](Cc1ccc(O)cc1)NC(=O)[C@@H](N)CN)C(C)C)C(=O)N[C@@H](CC(=O)O)C(=O)N[C@@H](CCCCN)C(=O)N[C@@H](CCCNC(=N)N)C(=O)N[C@@H](Cc1ccc(O)cc1)C(=O)N[C@@H](CCCNC(=N)N)C(=O)N[C@@H](CO)C(=O)O) [compound 9] | 83% | 125%
5 | 11 (H-CYYDDSSSVLCKKYRS-OH; disulfide 1-11; SMILES CC(C)C[C@@H]1NC(=O)[C@H](C(C)C)NC(=O)[C@H](CO)NC(=O)[C@H](CO)NC(=O)[C@H](CO)NC(=O)[C@H](CC(=O)O)NC(=O)[C@H](CC(=O)O)NC(=O)[C@H](Cc2ccc(O)cc2)NC(=O)[C@H](Cc2ccc(O)cc2)NC(=O)[C@@H](N)CSSC[C@@H](C(=O)N[C@@H](CCCCN)C(=O)N[C@@H](CCCCN)C(=O)N[C@@H](Cc2ccc(O)cc2)C(=O)N[C@@H](CCCNC(=N)N)C(=O)N[C@@H](CO)C(=O)O)NC1=O) [compound 11] |  | −13%
6 | 3 (H-[Dap]YFDDSSNVLDKKYRS-OH; SMILES CC(C)C[C@H](NC(=O)[C@@H](NC(=O)[C@H](CC(N)=O)NC(=O)[C@H](CO)NC(=O)[C@H](CO)NC(=O)[C@H](CC(=O)O)NC(=O)[C@H](CC(=O)O)NC(=O)[C@H](Cc1ccccc1)NC(=O)[C@H](Cc1ccc(O)cc1)NC(=O)[C@@H](N)CN)C(C)C)C(=O)N[C@@H](CC(=O)O)C(=O)N[C@@H](CCCCN)C(=O)N[C@@H](CCCCN)C(=O)N[C@@H](Cc1ccc(O)cc1)C(=O)N[C@@H](CCCNC(=N)N)C(=O)N[C@@H](CO)C(=O)O) [compound 3] | 67% | 128%
